From US11365450B2, “Group classification and prognosis prediction system based on biological characteristics of gastric cancer” (Novomics Co., Ltd., priority 2017, dated 2022)
Entries after “also recorded” stand apart in the source; their conditions may differ.

How the values were obtained:
Type in all cases: cell-based, Human
[1] = system: Hs746T cells; test: invasion assay (HUVEC monolayer transwell); settings: LY2157299 50 μM; 48 hours incubation
Method: Invasion assay: For the assay, 2×10^4 HUVEC cells were placed in a culture medium (M199) in a fibronectin-coated transwell, followed by coating the bottom of the transwell with 0.2% gelatin and cell culture for 48 hours until monolayer formation. Thereafter, 1×10^5/50 μl Hs746T and NCI-N87 cells containing FBS-free CellTracker™ (Molecular Probes, C2925) were separately added to the transwell. A culture medium containing 10% FBS was added to the lower chamber. After incubation for 48 hours, upper cells of the membrane were removed using a cotton swab. Cells on the lower membrane were lysed in 200 μl of a lysis buffer at room temperature for 2 hours to 3 hours. Fluorescence was measured with Ex/Em 492/517. To examine the effect of a TGF-β inhibitor on cell invasion ability, 50 μM of LY2157299 (AdooQ, California, USA) was administered.

[2] = system: Hs746T cells; test: in vitro tumor spheroid formation assay; settings: LY2157299 50 μM; 30 days of cell culture
Method: Tumor spheroid formation assay: Ten cells were cultured in 50 μl of DMEM/F12 (Gibco) supplemented with bFGF, EGF, B27, 10% FBS, and 1% antibiotics in a 96-well plate. After 30 days of cell culture, the number of tumor spheroids in each well was counted. In addition, LY2157299 (50 μM) was administered to examine the effect of the TGF-β inhibitor on tumor sphere formation.

[3] = system: Hs746T cells; test: in vitro scratch wound-healing (migration) assay; settings: LY2157299 50 μM; wound width after 72 hours
Method: Migration assay: Hs746T and NCI-N87 cells were grown into monolayers in a culture medium containing 10% FBS and 1% antibiotics. When confluency reached 70%, the cell monolayers were scratched with a 100-μl pipette tip. After 72 hours, the wound width was measured and normalized by the wound width measured immediately after scratching. LY2157299 (50 μM) was administered to evaluate the effect of the TGF-β inhibitor on cell migration.

Cc1cccc(-c2nn3c(c2-c2ccnc4ccc(C(N)=O)cc24)CCC3)n1 [LY2157299]
delayed; also recorded: suppression: invasion ability of Hs746T cells [1] | 3D spheroid formation ability of Hs746T cells [2] | wound-healing ability of Hs746T cells [3]
